Patent US8383637B2, “2-amino-quinazoline derivatives useful as inhibitors of β-secretase (BACE)” (Jansssen Pharmaceutica N.V., priority 2004, dated 2013)

Target: T1, β-secretase(BACE) (Homo sapiens, UniProt P56817)
T1 construct: purchased Panvera
Test: BACE Assay-1 (MCA-substrate, IC50)
Type: biochemical
Conditions: procedure of Example 158; read-out: IC50 μM (158)
Procedure: The following standards are reagents were used in this assay: Sodium Citrate trisodium salt dihydrate (Sigma), Citric Acid monohydrate (Merck), PEG8000 (Sigma), MCA-substrate (Bachem), β-secretase (BACE) (Panvera), 96-well plate zwart (Costar (Elscolab)), StatVal (Bachem).
The following standard assay buffer solution was prepared and used in this assay: 0.05 M, pH 5.0 mixture of sodium citrate trisodium salt dihydrate (9.56 g), citric acid monohydrate (3.68 g) and PEG8000 (0.50 g).
The MCA-substrate stock solution was prepared by mixing 10 mg MCA-substrate with 5 mL DMSO for a final solution concentration of 2.0 mg/mL. The substrate work solution was prepared by mixing 0.1 mL substrate in 1.90 mL assay buffer for a final concentration of 0.05 mM. The β-secretase (BACE) work solution was prepared by mixing 8 μL BACE in 2 mL assay buffer for a final concentration of 10 μg/mL.
The screen procedure for this assay was as follows. 60 μL of assay buffer was pippeted into each well of a 96-well plate. To each well was then pipetted 1 μL of test compound at the selected concentration. To each well was then added 20 μL of the β-secretase work solution and 20 μL of the MCA-substrate stock solution.
The procedure for the blank was as follows. 80 μL of assay buffer was pipetted into each well to be used as a blank control. To each well was then added 1 μL of DMSO and 20 μL of MCA-substrate solution in each well.
The procedure for the positive control was as follows. 60 μL of assay buffer was pipetted into each well to be used as a positive control. To each well was then added 1 μL of DMSO, 20 μL of BACE work solution and 20 μL of MCA-substrate stock solution.
For test compounds, measured at multiple concentrations, the measured T0 and T60 values were used to calculate an IC50 value using Graphpad Software (or PIR).

T1 sequence (P56817 46-501): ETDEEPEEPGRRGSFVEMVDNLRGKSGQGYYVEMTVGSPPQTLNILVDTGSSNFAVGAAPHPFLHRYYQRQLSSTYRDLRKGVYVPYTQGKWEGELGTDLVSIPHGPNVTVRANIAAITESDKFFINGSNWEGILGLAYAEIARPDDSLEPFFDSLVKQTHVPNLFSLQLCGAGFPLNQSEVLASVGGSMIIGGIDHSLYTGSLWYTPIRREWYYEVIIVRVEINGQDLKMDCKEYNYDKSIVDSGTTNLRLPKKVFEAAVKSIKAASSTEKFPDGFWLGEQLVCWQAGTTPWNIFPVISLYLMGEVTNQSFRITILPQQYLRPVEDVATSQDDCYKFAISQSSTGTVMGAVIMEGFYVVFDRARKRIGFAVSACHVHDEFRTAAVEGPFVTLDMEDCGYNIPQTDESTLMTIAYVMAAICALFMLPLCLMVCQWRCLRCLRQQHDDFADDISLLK

| IC50 | SMILES |
| --- | --- |
| 3.1 µM | NC1=Nc2ccc(C(=O)c3ccccc3)cc2CN1CCCOc1ccccc1 [Compound 8] |
| 0.074 µM | CCCC(CCCC(=O)N(C)C1CCCCC1)N1Cc2cc(Oc3ccccc3)ccc2N=C1N (stereo not drawn) [Compound 90] |
| > 10 µM | CCCN1Cc2cc(Oc3cccc(NS(C)(=O)=O)c3)ccc2N=C1N [Compound 237] |
| 8.9 µM | CCCN1Cc2cc(Oc3cccc(NS(=O)(=O)C(C)C)c3)ccc2N=C1N [Compound 238] |
| 0.35 µM | CCCCS(=O)(=O)Nc1cccc(Oc2ccc3c(c2)CN(CCC)C(N)=N3)c1 [Compound 239] |
| 0.89 µM | CCCN1Cc2cc(Oc3cccc(NS(=O)(=O)c4ccsc4)c3)ccc2N=C1N [Compound 240] |
| 0.49 µM | CCCN1Cc2cc(Oc3cccc(NS(=O)(=O)c4cccs4)c3)ccc2N=C1N [Compound 241] |
| > 10 µM | CCCN1Cc2cc(Oc3cccc(NS(=O)(=O)c4c(C)noc4C)c3)ccc2N=C1N [Compound 242] |
| 0.033 µM | CCCN1Cc2cc(Oc3cccc(NS(=O)(=O)c4c(C)cc(C)cc4C)c3)ccc2N=C1N [Compound 243] |
| 2.1 µM | CCCN1Cc2cc(Oc3cccc(NS(=O)(=O)c4ccc5ccccc5c4)c3)ccc2N=C1N [Compound 244] |
| 0.17 µM | CCCN1Cc2cc(Oc3cccc(NS(=O)(=O)c4csc5ccccc45)c3)ccc2N=C1N [Compound 245] |
| > 10 µM | CCCN1Cc2cc(Oc3cccc(NS(=O)(=O)c4ccc(NC(C)=O)cc4)c3)ccc2N=C1N [Compound 246] |
| 6.9 µM | CCCN1Cc2cc(Oc3cccc(NS(=O)(=O)c4cc(OC)ccc4OC)c3)ccc2N=C1N [Compound 248] |
| 5.2 µM | CCCN1Cc2cc(Oc3cccc(NS(=O)(=O)c4ccc(OC)c(OC)c4)c3)ccc2N=C1N [Compound 249] |
| > 10 µM | CCCN1Cc2cc(Oc3cccc(NS(=O)(=O)c4ccccc4S(C)(=O)=O)c3)ccc2N=C1N [Compound 250] |
| > 10 µM | CCCN1Cc2cc(Oc3cccc(NS(=O)(=O)c4ccc(-c5ccccn5)s4)c3)ccc2N=C1N [Compound 251] |
| 1 µM | CCCN1Cc2cc(Oc3cccc(NS(=O)(=O)c4cccc(OC(F)(F)F)c4)c3)ccc2N=C1N [Compound 252] |
| > 10 µM | CCCN1Cc2cc(Oc3cccc(NS(=O)(=O)c4cccc5c(N(C)C)cccc45)c3)ccc2N=C1N [Compound 253] |
| > 10 µM | CCCN1Cc2cc(Oc3cccc(NS(=O)(=O)c4ccc(-c5csc(C)n5)s4)c3)ccc2N=C1N [Compound 254] |
| > 10 µM | CCCN1Cc2cc(Oc3cccc(NS(=O)(=O)c4ccc(-c5cc(C(F)(F)F)on5)s4)c3)ccc2N=C1N [Compound 255] |

| IC50 | SMILES |
| --- | --- |
| 0.35 µM | CCCN1Cc2cc(Oc3cccc(NS(=O)(=O)Cc4ccccc4)c3)ccc2N=C1N [Compound 269] |
| 2.37 µM | CCCN1Cc2cc(Oc3cccc(NS(=O)(=O)c4cccc(C#N)c4)c3)ccc2N=C1N [Compound 270] |
| 0.39 µM | CCCN1Cc2cc(Oc3cccc(NS(=O)(=O)c4cccc(OC)c4)c3)ccc2N=C1N [Compound 271] |
| 0.52 µM | CCCN1Cc2cc(Oc3cccc(NS(=O)(=O)c4ccc(OC)cc4)c3)ccc2N=C1N [Compound 272] |
| 0.17 µM | CCCN1Cc2cc(Oc3cccc(NS(=O)(=O)c4ccc(C)cc4OC)c3)ccc2N=C1N [Compound 273] |
| > 10 µM | CCCN1Cc2cc(Oc3cccc(NS(=O)(=O)c4cccc5ccccc45)c3)ccc2N=C1N [Compound 274] |
| > 10 µM | CCCN1Cc2cc(Oc3cccc(NS(=O)(=O)c4ccc5c(c4)OCCO5)c3)ccc2N=C1N [Compound 275] |
| > 10 µM | CCCN1Cc2cc(Oc3cccc(NS(=O)(=O)c4ccsc4C(=O)OC)c3)ccc2N=C1N [Compound 276] |
| 0.7 µM | CCCN1Cc2cc(Oc3cccc(NS(=O)(=O)c4ccccc4C(F)(F)F)c3)ccc2N=C1N [Compound 277] |
| > 10 µM | CCCN1Cc2cc(Oc3cccc(NS(=O)(=O)c4ccc(-c5ccno5)s4)c3)ccc2N=C1N [Compound 278] |
| > 10 µM | CCCN1Cc2cc(Oc3cccc(NS(=O)(=O)c4cc(C(=O)O)ccc4OC)c3)ccc2N=C1N [Compound 279] |
| 11 µM | CCCN1Cc2cc(Oc3cccc(NS(=O)(=O)c4ccc(-c5ccccc5)cc4)c3)ccc2N=C1N [Compound 280] |
| 1.6 µM | CCCN1Cc2cc(Oc3cccc(NS(=O)(=O)CCc4cccc5ccccc45)c3)ccc2N=C1N [Compound 281] |
| > 10 µM | CCCN1Cc2cc(Oc3cccc(NS(=O)(=O)c4cccc(Br)c4)c3)ccc2N=C1N [Compound 282] |
| > 10 µM | CCCN1Cc2cc(Oc3cccc(NS(=O)(=O)c4ccc(OC(F)(F)F)cc4)c3)ccc2N=C1N [Compound 283] |
| 0.87 µM | CCCN1Cc2cc(Oc3cccc(NS(=O)(=O)c4ccc(Br)s4)c3)ccc2N=C1N [Compound 284] |
| > 10 µM | CCCN1Cc2cc(Oc3cccc(NS(=O)(=O)c4cc(S(=O)(=O)c5ccccc5)cs4)c3)ccc2N=C1N [Compound 285] |
| > 10 µM | COc1cc(OC)cc(Oc2ccc3c(c2)CN(CCCCC(=O)N(C)C2CCCCC2)C(N)=N3)c1 [Compound 288] |
| 0.35 µM | CCOC(=O)N1CCC(N2Cc3cc(Oc4cccc(NS(=O)(=O)c5ccc(C)cc5OC)c4)ccc3N=C2N)CC1 [Compound 353] |
| 2.6 µM | COc1cc(C)ccc1S(=O)(=O)Nc1cccc(Oc2ccc3c(c2)CN(CCCCCO)C(N)=N3)c1 [Compound 355] |

| IC50 | SMILES |
| --- | --- |
| 0.53 µM | CCOC(=O)N1CCC(N2Cc3cc(Oc4cccc(NS(=O)(=O)c5c(C)cc(C)cc5C)c4)ccc3N=C2N)CC1 [Compound 362] |
| 0.17 µM | CCOC(=O)N1CCC(N2Cc3cc(Oc4cccc(NS(=O)(=O)c5ccccc5)c4)ccc3N=C2N)CC1 [Compound 376] |
| 0.71 µM | NC1=Nc2ccc(Oc3cccc(NS(=O)(=O)c4ccccc4)c3)cc2CN1CCCCCO [Compound 380] |
| 0.65 µM | Cc1cc(C)c(S(=O)(=O)Nc2cccc(Oc3ccc4c(c3)CN(CCCCCO)C(N)=N4)c2)c(C)c1 [Compound 383] |
| 0.13 µM | CC(C)(C)OC(=O)N1CCC(CN2Cc3cc(Oc4cccc(NS(=O)(=O)c5ccccc5)c4)ccc3N=C2N)CC1 [Compound 384] |
| 0.28 µM | CCCN1Cc2cc(-c3ccccc3CCNS(=O)(=O)c3ccccc3)ccc2N=C1N [Compound 385, N-{2-[2-(2-Amino-3-propyl-3,4-dihydro-quinazolin-6-yl)-phenyl]-ethyl}-benzenesulfonamide] |
| 3.3 µM | CCCN1Cc2cc([S+]([O-])c3cccc(NS(=O)(=O)c4ccccc4)c3)ccc2N=C1N (stereo not drawn) [Compound 387, N-[3-(2-Amino-3-propyl-3,4-dihydro-quinazoline-6-sulfinyl)-phenyl]-benzenesulfonamide] |
| 0.87 µM | CC(C)(C)OC(=O)NCCN1Cc2cc(Oc3cccc(NS(=O)(=O)c4ccccc4)c3)ccc2N=C1N [Compound 394] |
| 3.98 µM | CCCN1Cc2cc(-c3cccc(NS(=O)(=O)c4ccccc4)c3)ccc2N=C1N [Compound 397] |
| 0.054 µM | Cc1ccc(C(CCC(=O)N(C)C2CCCCC2)N2Cc3cc(Oc4ccccc4)ccc3N=C2N)cc1 (stereo not drawn) [Compound 421] |
| 5.8 µM | CCCN1Cc2cc(Oc3cccc(C(=O)NCc4c(C)cc(C)cc4C)c3)ccc2N=C1N [Compound 423] |
| 0.8 µM | CCCN1Cc2cc(Oc3cccc(CNCCc4ccccc4)c3)ccc2N=C1N [Compound 431] |
| 0.011 µM | CCCN1Cc2cc(Sc3cccc(NS(=O)(=O)c4c(C)cc(C)cc4C)c3)ccc2N=C1N [Compound 497] |
| 0.16 µM | CCCN1Cc2cc(Oc3cccc(NCc4c(C)cc(C)cc4C)c3)ccc2N=C1N [Compound 500] |
| 3.4 µM | CCCN1Cc2cc(Oc3cccc(NCc4c(OC)cccc4OC)c3)ccc2N=C1N [Compound 501] |
| 0.18 µM | CCCN1Cc2cc(Oc3cccc(NCc4ccc(OC)cc4)c3)ccc2N=C1N [Compound 502] |
| 0.081 µM | CCCN1Cc2cc(Oc3cccc(NCc4ccccc4)c3)ccc2N=C1N [Compound 507] |
| 17 µM | CN(C(=O)CCN1Cc2ccccc2N=C1N)c1ccccc1 [Compound 800] |

Target: T1, β-secretase(BACE)
Test: BACE Assay-2 (FS1 substrate, IC50 and Ki)
Type: biochemical
Conditions: procedure of Example 159, FS1 substrate

| IC50 | SMILES |
| --- | --- |
| 15 µM | NC1=Nc2ccc(C(=O)c3ccccc3)cc2CN1CCCOc1ccccc1 [Compound 8] |

Same assay, conditions: procedure of Example 159, FS1 substrate; read-out: Ki μM (159)

| Ki | SMILES |
| --- | --- |
| 1.2 µM | NC1=Nc2ccc(C(=O)c3ccccc3)cc2CN1CCCOc1ccccc1 [Compound 8] |
| 0.22 µM | CCCC(CCCC(=O)N(C)C1CCCCC1)N1Cc2cc(Oc3ccccc3)ccc2N=C1N (stereo not drawn) [Compound 90] |

Target: T1, β-secretase(BACE)
Test: BACE FS1% Inhibition Assay
Type: biochemical
Conditions: 0.3 μM test compound; FS1 substrate; read-out: % Inhibition (FS) 0.3 μM
How it was run: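 Percent inhibition at each tested concentration, referenced to enzyme-free blank and vehicle-only positive control. Reaction: compound and BACE (4 μg/mL working stock) mixed 20 min at room temperature before FS1 substrate (300 μg/mL working stock), then 1 h at room temperature.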

| inhibition at 0.3 µM | SMILES |
| --- | --- |
| < 30% | Cc1ccc(C(CCC(=O)N(C)C2CCCCC2)N2Cc3cc(Oc4ccccc4)ccc3N=C2N)cc1 (stereo not drawn) [Compound 421] |

Same assay, conditions: 1 μM test compound; FS1 substrate; read-out: % Inhibition (FS) 1 μM

| inhibition at 1 µM | SMILES |
| --- | --- |
| 71% | Cc1ccc(C(CCC(=O)N(C)C2CCCCC2)N2Cc3cc(Oc4ccccc4)ccc3N=C2N)cc1 (stereo not drawn) [Compound 421] |

Same assay, conditions: 3 μM test compound; FS1 substrate; read-out: % Inhibition (FS) 3 μM

| inhibition at 3 µM | SMILES |
| --- | --- |
| 106% | CCCC(CCCC(=O)N(C)C1CCCCC1)N1Cc2cc(Oc3ccccc3)ccc2N=C1N (stereo not drawn) [Compound 90] |
| 111% | Cc1ccc(C(CCC(=O)N(C)C2CCCCC2)N2Cc3cc(Oc4ccccc4)ccc3N=C2N)cc1 (stereo not drawn) [Compound 421] |

Same assay, conditions: 10 μM test compound; FS1 substrate; read-out: % Inhibition (FS) 10 μM

| inhibition at 10 µM | SMILES |
| --- | --- |
| 124% | CCCC(CCCC(=O)N(C)C1CCCCC1)N1Cc2cc(Oc3ccccc3)ccc2N=C1N (stereo not drawn) [Compound 90] |
